Literature values, collected in patent publication US20080253970A1, “Stable Pharmaceutical Drug Products” (Schering Corporation, priority 2007, published 2008).

Compound	solubility in ethanol
C[C@@H]1C[C@H]2[C@@H]3CCC4=CC(=O)C=C[C@]4(C)[C@@]3(Cl)[C@@H](O)C[C@]2(C)[C@@]1(OC(=O)c1ccco1)C(=O)CCl [mometasone furoate, 9,21-Dichloro-11(beta), 17-dihydroxy-16(alpha)-methylpregna-1,4-diene-3,20-dione17-(2 Furoate)]	partially soluble in ethanol
CC1(C)O[C@@H]2C[C@H]3[C@@H]4C[C@H](F)C5=CC(=O)C=C[C@]5(C)[C@H]4[C@@H](O)C[C@]3(C)[C@]2(C(=O)CO)O1 [flunisolide]	partially soluble in ethanol
C[N+]1(C)[C@@H]2C[C@@H](OC(=O)C(O)(c3cccs3)c3cccs3)C[C@H]1[C@@H]1O[C@@H]12 [tiotropium]	partially soluble in ethanol
